Assay [1] relates to human endothelial cells (HUVEC). Kind of assay: De novo formation of vascular tubes on Matrigel. The assay is classed as cell-based. The note with it: HUVEC in Matrigel, 24 hours. How it is done: In order to monitor the effect of compound (1) on “de novo” formation of vascular tubes, human endothelial cells (HUVEC) were cultured in a matrix (Matrigel), in the presence or absence of compound (1). After 24 hours, the effect of compound (1) is analyzed by optical microscopy and is illustrated by photographs. […] Compound (1) thus acts directly on growing endothelial cells by blocking the formation of capillaries, in contrast to the absence of effect on a capillary network already formed, in the “quiescent” state.

The test system of assay [2] is chick embryo chorioallantoic membrane. Kind of assay: In ovo physiological angiogenesis on chick embryo chorioallantoic membrane. The assay is classed as in vivo. The conditions noted are these: 20 μL of 50 μM solution on CAM, seventh day of embryonic development. How it is done:
The effect of compound (1) on physiological angiogenesis was evaluated using the chick embryo chorioallantoic membrane (CAM) model which constitutes a richly vascularized tissue.
At the seventh day of embryonic development, 20 μL of the 50 μM solution of compound (1) was deposited on the chorioallantoic membrane whereas the control membranes were treated with solvent.

Assay [3] deals with HCT-116 cells. The assay can be described thus: VEGF secretion by ELISA, HCT-116 culture supernatant. The note with it: HCT-116, normoxic and hypoxic (2% O2) conditions, concentrations of 5 to 50, 24 hours. The assay is classed as cell-based. Here is the method:
(§1) At the tenth day of embryonic development, glioblastoma cells (U87, 5×10^6 in 20 μL) were deposited on the chorioallantoic membrane. Two days after the graft, compound (1) at a concentration of 50 μM in a volume of 20 μL was deposited on the surface of the tumor formed. This treatment was repeated every 24 hours for 5 days. The control group was treated with solvent. The test was carried out on 20 eggs bearing glioblastoma tumors for each group. Images of the tumors were taken at day 3 (24 hours after treatment), at day 5 (3 days after treatment) and at day 7 (5 days after treatment) of tumor development. […] In order to determine the antiangiogenic mechanism of compound (1), VEGF was assayed by the ELISA method (Invitrogen, Novex technology), from the culture supernatant of U87 and HCT-116 cells, under normoxic and hypoxic conditions.
In general terms: An ELISA detects its analyte on a solid surface through an enzyme-linked reagent.

The test system of assay [4] is HCT-116 cells. Kind of assay: Cell growth test (CellTiter-Blue), HCT-116. The assay is classed as cell-based. The conditions noted are these: Homo sapiens, HCT-116, 72 h, HCT-116, normoxia, 72 hours; read-out: IC50 (50% decrease in cell growth). How it is done:
(§2) The biological activity of compound (1), as well as that of its structural analogues, was studied in vitro on 7 different cancer cell lines: • HCT-116 (colorectal cancer) • U87 (glioblastoma) • K562 (myeloid leukemia) and K562 R • MDA-MB 231 (mammary adenocarcinoma) • MCF-7 (mammary adenocarcinoma) • A549 (pulmonary alveolar adenocarcinoma)
The cells selected for this study were incubated at 37° C. in the presence of compound (1) added in the culture medium at various concentrations and at various times. The set of experiments carried out made it possible to determine the degree of cytotoxicity of the compound tested (IC50), its capacity to induce cell death by apoptosis, in close dependence on extracellular superoxide anion for its activation. […]
On the technique in general: Alamar Blue is a resazurin reagent that responds to reducing activity.

Assay [5] can be described thus: EPR competition with BMPO, superoxide anion from xanthine/xanthine oxidase (aqueous phase). The note with it: xanthine oxidase 53 mU/mL + xanthine 250 μM in PBS pH 7.4, BMPO 50 mM, 10 minutes of incubation; read-out: IC50, inhibition of the formation of the BMPO superoxide adduct. The assay is classed as biochemical. Here is the method:
The reactivity of compound (1) with superoxide anion in the aqueous phase was also studied by EPR at room temperature using the same competition method with the trapping reagent BMPO at 50 mM (FIG. 1B). In this case, superoxide anion is produced by enzymatic reaction of xanthine oxidase (XO, 53 mU/mL) with xanthine (X, 250 μM) in PBS (pH 7.4) containing 0.1 mM ethylenediaminetetraacetic acid (EDTA). The concentrations used for compound (1) are between 0.34 μM and 43.1 μM. These experiments were carried out with an ELEXSYS E500 EPR spectrometer (Bruker, Wissembourg, France), operating at a frequency of 9.82 GHz (X-band) with the following parameters: magnetic field: 349.0 ±6.6 mT; sweep time: 41.94 s; sampling: 1024 points; time constant: 40.96 ms; conversion time: 40.96 ms; modulation amplitude: 0.10 mT; modulation frequency: 100 kHz; gain: 60 dB; microwave power: 10 mW.

Assay [6] deals with U87 cells. The assay can be described thus: VEGF secretion by ELISA, U87 culture supernatant. The assay is classed as cell-based, human. The conditions noted are these: U87, normoxic and hypoxic (2% O2) conditions, concentrations of 5 to 50, 24 hours. Here is the method: as §1
The subject of the next assay is K562 cells. Kind of assay: Cell growth test (CellTiter-Blue), K562. The conditions noted are these: Homo sapiens; K562, normoxia, 72 hours; read-out: IC50 (50% decrease in cell growth). The assay is classed as cell-based. Here is the method: as §2
(§3) The cells selected for this study were incubated at 37° C. in the presence of compound (1) added in the culture medium at various concentrations and at various times. The set of experiments carried out made it possible to determine the degree of cytotoxicity of the compound tested (IC50), its capacity to induce cell death by apoptosis, in close dependence on extracellular superoxide anion for its activation.
(§4) The effect of compound (1) on the growth of HCT-116, U87, K562, K562R, MDA-MB 231, MCF-7 and A549 cells, cultured in normoxia, was evaluated using a cell growth test (CellTiter-Blue™ Cell Viability Assay, Promega).

Assay [7] has as its system U87 cells. The assay can be described thus: Cell growth test (CellTiter-Blue), U87. The conditions noted are these: Homo sapiens, U-87 MG; U87, normoxia, 72 hours; read-out: IC50 (50% decrease in cell growth). The assay is classed as cell-based. Here is the method:
as §2, §3, §4

Assay [8] can be described thus: EPR at 77 K, disappearance of the O2°- signal. The conditions noted are these: KO2 2.5 mM in DMSO, dependent on concentration. Here is the method: In order to follow the direct interaction of compound (1) with superoxide anion, solid potassium superoxide (KO2) was dissolved by sonication in DMSO (final concentration 2.5 mM), then mixed with compound (1) and immediately cooled by immersion in liquid nitrogen. EPR analysis at 77 K (liquid nitrogen) was carried out with a MiniScope MS 100 EPR spectrometer, operating at a frequency of 9.5 GHz (X-band) with the following parameters: magnetic field: 336.0±49.8 mT; sweep time: 20 s; sampling: 4096 points; modulation amplitude: 0.10 mT; modulation frequency: 100 kHz; gain: 900; microwave power: 6 mW.

The next assay has as its system MDA-MB 231 cells. The assay can be described thus: Cell growth test (CellTiter-Blue), MDA-MB 231. The assay is classed as cell-based. The conditions noted are these: Homo sapiens; MDA-MB 231, normoxia, 72 hours; read-out: IC50 (50% decrease in cell growth). Here is the method: as §2, §3, §4

SMILES strings stand for the structures.

Broadly, the IC50 is the concentration that gives 50% inhibition.

In the case of `OCCCn1cc(-c2ccccc2)c(-c2ccc(O)c(O)c2)c1` [compound (1)], the “de novo formation of vascular tubes (capillaries)” value in [1] is reported as “prevents the formation of capillaries”. For the same molecule, in [2], the “effect on physiological angiogenesis” value is recorded as “absence of the effect”. Moreover, the VEGF secretion entry with HCT-116 cells [3] and with U87 cells [6] was “does not modify VEGF secretion” each time. Besides, the IC50 is 7.5 µM in the assay on HCT-116 cells [4]; 3.2 µM in [5]; 232 µM in the assay on K562 cells; 7 µM with U87 cells [7]; 20 µM in the assay on MDA-MB 231 cells. Moreover, in [8], the “EPR signal of superoxide anion” value is “decrease in the EPR signal of superoxide anion”.

The values above are taken from patent US10233151B2, “Use of a novel 3-aryl-4-catechol-pyrrole-N-propanol compound and the derivatives thereof to treat cancer and diseases related to excessive angiogenesis” (Centre National de la Recherche Scientifique (CNRS), priority 2014, dated 2019).
